From patent publication US9616047B2, “Inhibitors of beta-catenin in treatment of colorectal cancer” (Regents of the University of Minnesota, priority 2014, dated 2017) come the findings set out here.

The subject of assay [1] is β-catenin/Tcf-4 luciferase activity. Briefly: β-catenin/Tcf-4 luciferase assay of HI-B9 derivatives (cell line not stated). It counts as cell-based. The settings on record: FIG. 6A. As to the method: (§1) (B) HI-B16 inhibited anchorage-independent growth of colon cancer cells. HCT116, HT29, DLD1 and SW480 were incubated in agar plate with or without HI-B16 and HI-B9. In every case, HI-B16 was better than HI-B9 treatment.
Transient transfection was performed using jetPEI and assays to detect firefly luciferase and Renilla activities according to the manufacturer's manual (Promega). Briefly, cells were seeded onto 10-cm plates and co-transfected with 400 ng of the Renilla luciferase internal control gene and 4 μg of the TOP-flash luciferase reporter construct containing three tandem Tcf consensus binding sites upstream of luciferase cDNA, or the FOPflash luciferase reporter construct, a plasmid with mutated Tcf binding sites. After 16 h of transfection, cells were trypsinized and seeded onto 48-well plates, and cells were treated with respective chemicals for 24 h. Luciferase and Renilla activities were measured using their substrates.

Assay [2] concerns HCT116 colon cancer cells. Briefly: Soft agar assay, anchorage-independent growth, HCT116. It counts as cell-based. Here is the method: (§2) FIG. 2. […] HCT116 and HT-29 colon cancer cells. Colony formation of two cell lines were inhibited by treatment of β-catenin inhibitor candidates. Cells (8×10^3/ml) were incubated with or without HI-B5 or HI-B9 compounds in 1 mL of 0.33% BME agar containing 10% FBS or in 3.5 mL of 0.5% BME agar containing 10% FBS. The cultures were maintained at 37° C. in a 5% CO2 incubator for 7 days, after which the cell colonies were counted under a microscope.
(§3) Cells (8×10^3 per well) suspended in Basal Medium Eagle (BME) supplemented with 10% FBS were added to 0.3% agar with different doses of chemicals in a top layer over a basal layer of 0.6% agar. The cultures were maintained at 37° C. in a 5% CO2 incubator for 2 wk and then colonies were counted under a microscope using the Image-Pro Plus Software (v.4) program (Media Cybernetics).

Assay [3] relates to HT-29 colon cancer cells. Description: Soft agar assay, anchorage-independent growth, HT29. Type of assay: cell-based. Here is the method:
as §2, §3

For assay [4], the system named is DLD1. Description: Soft agar assay, anchorage-independent growth, DLD1. It counts as cell-based. As to the method:
as §1, §3

For assay [5], the system named is SW480. Description: Soft agar assay, anchorage-independent growth, SW480. It counts as cell-based. As to the method: as §1, §3
Assay [6] concerns colon cancer cells. Briefly: Proliferation and anchorage-independent growth of colon cancer cells (statements over several lines). Type of assay: cell-based. The settings on record: every cell line tested: HCT116, HT29, DLD1 and SW480. Here is the method: as §3
The subject of assay [7] is β-catenin. Description: Ex vivo pull-down with compound-conjugated Sepharose 4B beads and colon cancer cell lysate: β-catenin. Type of assay: binding. The settings on record: colon cancer cell lysates; compound-conjugated Sepharose 4B beads. Here is the method:
Protein extracts (500 μg) of colon cancer cells were mixed with Sepharose-4B beads (as a negative control) or chemical-conjugated Sepharose 4B beads (100 μl) in reaction buffer. After being washed five times with buffer, the proteins were visualized by Western blot analysis.

For assay [8], the target named is T1, human β-catenin (126-781 amino acid residues) (Homo sapiens, UniProt P35222).
T1 construct: human β-catenin (126-781 amino acid residues)
T1 sequence (P35222 126-781): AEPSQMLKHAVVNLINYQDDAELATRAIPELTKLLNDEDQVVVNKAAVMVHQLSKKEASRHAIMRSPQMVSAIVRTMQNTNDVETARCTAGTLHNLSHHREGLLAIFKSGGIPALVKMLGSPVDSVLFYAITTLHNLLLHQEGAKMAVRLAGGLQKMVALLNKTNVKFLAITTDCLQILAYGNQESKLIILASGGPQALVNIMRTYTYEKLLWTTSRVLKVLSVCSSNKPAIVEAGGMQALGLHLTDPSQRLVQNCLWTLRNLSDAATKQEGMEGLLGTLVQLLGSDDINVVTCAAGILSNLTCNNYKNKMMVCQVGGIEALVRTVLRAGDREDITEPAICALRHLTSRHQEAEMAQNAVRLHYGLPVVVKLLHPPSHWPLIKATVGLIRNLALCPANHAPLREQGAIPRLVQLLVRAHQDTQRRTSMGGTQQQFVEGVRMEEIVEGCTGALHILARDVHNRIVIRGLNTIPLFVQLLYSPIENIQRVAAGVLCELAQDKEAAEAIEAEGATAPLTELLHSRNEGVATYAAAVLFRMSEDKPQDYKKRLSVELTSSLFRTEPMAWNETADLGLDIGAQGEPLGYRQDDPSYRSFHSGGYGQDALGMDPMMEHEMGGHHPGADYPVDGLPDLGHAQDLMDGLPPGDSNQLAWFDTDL
Description: In vitro binding assay with purified β-catenin and compound-conjugated sepharose 4B bead. As to the method: FIGS. 7A-C. […] 2% of input from each experiments were used to show equal amount of incubated protein (purified or total cell lysates).
Based on the structure of the active compound HI-B9, additional analogs HI-B12, 13, 16, 17 and 20 (FIG. 5) were de novo designed and synthesized. […] 2% of input from each experiments were used to show equal amount of incubated protein (purified or total cell lysates).

Assay [9] concerns c-Myc and cyclin D1. Description: Western blot analysis of β-catenin/Tcf-4 targets. Type of assay: cell-based. As to the method:
Proteins from cell lysates were prepared, separated by SDS-PAGE and transferred to Immobilon-P membranes (Millipore Corporation, Billerica, Mass.). Membranes were blocked with 5% nonfat dry milk for 1 h at room temperature and incubated with each of the primary and secondary antibodies. The signal was detected with a chemiluminescence reagent (Amersham).
A general note: Immunoblotting shows a protein as a band on a membrane.

As to `O=C(CC1(O)C(=O)Nc2ccc(F)cc21)c1ccc(O)c(C23CC4CC(CC(C4)C2)C3)c1` (centres unmarked) [HI-B16], in [1], the “inhibitory effect in β-catenin/Tcf-4 luciferase assay compared with HI-B9” value is “exerted inhibitory effects better than HI-B9”. Moreover, in assay [1] (concentration not given), the “inhibition of luciferase activity” value was around 90%. Besides, the “anchorage-independent growth (colony formation in soft agar)” value in assay [2], in assay [3], in assay [4] and in [5] was “inhibit anchorage-independent growth” in each case. Moreover, in assay [6], the “inhibition of anchorage-independent growth compared with HI-B9 treatment” value was “more effective than HI-B9”. Besides, the “binding to β-catenin (ex vivo pull-down)” value in assay [7] is “resulted in HI-B16/β-catenin binding”. Further, the “binding of purified β-catenin to compound-conjugated bead (in vitro)” value in assay [8] was “bound”. Further, in [9], the “protein expression of c-Myc and cyclin D1” value was “inhibited cyclin D1 and c-myc expression”. Further, the “β-catenin and Tcf-4 expression level” value in [9] is “not affected”.
